Source: PMC4313372, “MHJ_0461 is a multifunctional leucine aminopeptidase on the surface of Mycoplasma hyopneumoniae” (Open Biology, 2015)

Key:
rMHJ_0461 [1] = target: T1, rMHJ_0461 (Mesomycoplasma hyopneumoniae, UniProt Q4A9M4); assay: fluorogenic aminopeptidase assay, leucine-AMC, […] min preincubation; format: biochemical; design: gene pepA; multimers of about 500 and 800 kDa; conditions: read-out: % inhibition at 1 mM
rMHJ_0461 [2] = target: T1, rMHJ_0461; design: gene pepA; conditions: 50 uM substrate, 5 mM Mn2+, pH 7.2, 37 C
[3] = target: recombinant MHJ_0461 (Mycoplasma hyopneumoniae strain J); assay: native gel or EMSA; Blue Native PAGE of purified rMHJ_0461; complexes identified by LC-MS/MS of tryptic peptides

Compound | inhibition at 1000 µM (rMHJ_0461 [1]) [%] | also measured
CC(C)C[C@@H](N)[C@H](O)C(=O)N[C@H](C(=O)N[C@H](C(=O)N[C@@H](CC(=O)O)C(=O)O)C(C)C)C(C)C [amastatin] | 69 | 
CC(C)C[C@H](NC(=O)[C@@H](O)[C@H](N)Cc1ccccc1)C(=O)O [bestatin] | 99 | 
CSCC[C@H](N)C(=O)Nc1ccc2c(C)cc(=O)oc2c1 [methionine-AMC] |  | fluorogenic AMC release assay (rMHJ_0461 [2]): leucine > methionine > phenylalanine > arginine > alanine > isoleucine > glycine > valine
recombinant MHJ_0461 (enzyme) |  | stoichiometry N [3]: > 10 subunits
